Changes are numbered by the printed parent chain. Like-named read-outs stand apart in the source and are kept apart here.
What was measured:
Format in all cases: biochemical
Conditions in all cases: in the presence of 0.1 µM CPT-cGMP
[1] = target: T1, WT human CNGA3 plus WT CNGB3 heteromeric channels (Homo sapiens, UniProt Q16281+Q9NQW8); experiment: Inside-out patch-clamp recording of channels expressed in Xenopus oocytes (WT heteromeric)
T1 construct: expressed in transfected cells; host or cells: Xenopus laevis oocytes injected with cRNA transcribed from pGEMHE constructs
T1 sequence (Q16281 1-694): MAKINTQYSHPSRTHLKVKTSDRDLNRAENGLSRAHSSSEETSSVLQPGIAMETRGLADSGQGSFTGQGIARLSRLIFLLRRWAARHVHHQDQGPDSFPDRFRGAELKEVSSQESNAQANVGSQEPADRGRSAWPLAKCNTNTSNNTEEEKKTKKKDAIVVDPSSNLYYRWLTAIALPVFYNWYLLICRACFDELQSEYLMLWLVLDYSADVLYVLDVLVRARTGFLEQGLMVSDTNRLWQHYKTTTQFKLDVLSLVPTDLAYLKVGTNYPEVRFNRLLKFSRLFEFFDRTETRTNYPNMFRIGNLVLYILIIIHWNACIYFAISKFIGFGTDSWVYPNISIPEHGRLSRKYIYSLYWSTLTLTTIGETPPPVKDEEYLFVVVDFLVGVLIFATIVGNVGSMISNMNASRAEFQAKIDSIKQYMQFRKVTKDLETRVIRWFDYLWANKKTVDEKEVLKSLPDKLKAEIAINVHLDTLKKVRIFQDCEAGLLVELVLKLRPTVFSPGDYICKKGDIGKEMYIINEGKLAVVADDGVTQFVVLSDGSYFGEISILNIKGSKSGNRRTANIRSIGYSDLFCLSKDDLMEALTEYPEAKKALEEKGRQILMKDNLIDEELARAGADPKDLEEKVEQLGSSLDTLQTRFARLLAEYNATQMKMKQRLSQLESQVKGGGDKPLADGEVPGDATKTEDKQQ
T1 sequence (Q9NQW8 1-809): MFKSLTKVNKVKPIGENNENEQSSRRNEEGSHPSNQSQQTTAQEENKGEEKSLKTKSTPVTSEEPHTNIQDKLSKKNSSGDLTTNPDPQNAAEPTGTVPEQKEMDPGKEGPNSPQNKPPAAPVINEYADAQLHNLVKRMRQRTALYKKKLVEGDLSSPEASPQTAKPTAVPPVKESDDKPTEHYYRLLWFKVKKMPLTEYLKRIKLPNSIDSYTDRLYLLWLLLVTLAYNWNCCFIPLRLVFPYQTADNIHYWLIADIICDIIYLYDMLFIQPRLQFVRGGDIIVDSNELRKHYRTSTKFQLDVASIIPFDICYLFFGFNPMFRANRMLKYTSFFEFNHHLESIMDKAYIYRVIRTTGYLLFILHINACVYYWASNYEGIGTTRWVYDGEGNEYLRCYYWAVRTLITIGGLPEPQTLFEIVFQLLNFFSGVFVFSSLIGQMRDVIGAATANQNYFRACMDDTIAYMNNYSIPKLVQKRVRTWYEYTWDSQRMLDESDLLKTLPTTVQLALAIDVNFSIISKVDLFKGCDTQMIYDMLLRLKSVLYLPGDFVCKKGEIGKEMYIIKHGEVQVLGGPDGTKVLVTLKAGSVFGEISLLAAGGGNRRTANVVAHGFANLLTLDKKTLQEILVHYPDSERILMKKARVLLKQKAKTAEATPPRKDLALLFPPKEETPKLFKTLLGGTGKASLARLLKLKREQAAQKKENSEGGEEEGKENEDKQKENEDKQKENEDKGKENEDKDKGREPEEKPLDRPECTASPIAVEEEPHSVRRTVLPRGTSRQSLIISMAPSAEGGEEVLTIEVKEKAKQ
Protocol: (§1) For heterologous expression in Xenopus laevis oocytes, identical amounts of cDNA were linearized using SphI or NheI, and capped cRNA was transcribed in vitro using the T-7 RNA polymerase mMESSAGE mMACHINE® kit (Ambion, Austin, TX). cRNA concentrations and relative amounts were determined by denaturing gel electrophoresis and KODAK 1D image analysis software (Rochester, NY), as well as by spectrophotometry. […] Oocytes were incubated in ND96 (96 mM NaCl, 2 mM KCl, 1.8 mM CaCl2, 1 mM MgCl2, and 5 mM HEPES, pH 7.6, supplemented with 10 μg/ml gentamycin).
(§2) Two to seven days after microinjection of cRNA, patch-clamp experiments were performed using the inside-out configuration with an Axopatch 200B amplifier (Axon Instruments, Foster City, CA). Recordings were made at 20–23 °C. Data were acquired using Pulse software (HEKA Elektronik, Lambrecht, Germany). Current traces were elicited by voltage steps from a holding potential of 0 mV to +80 mV, then to −80 mV and back to 0 mV. Initial pipette resistances were 0.4–0.8 megaohms. Intracellular and extracellular solutions contained 130 mM NaCl, 0.2 mM EDTA, and 3 mM HEPES (pH 7.2). Intracellular solutions were exchanged using an RSC-160 rapid solution changer (Molecular Kinetics, Indianapolis, IN). Currents in the absence of cyclic nucleotides were subtracted. For channel activation by CPT-cGMP or CPT-cAMP, dose–response data were fitted with the Hill equation, I/Imax=([cNMP]^h/(K1/2^h + [cNMP]^h)), where I is the current amplitude at +80 mV, Imax is the maximum current elicited by saturating concentration of ligand, [cNMP] is the ligand concentration, K1/2 is the apparent ligand affinity, and h is the Hill slope. We measured sensitivity to block by L-cis-diltiazem (RBI, Natick, MA) applied to the intracellular face of the patch in the presence of 0.1 μM CPT-cGMP. Data were fit with a modified Hill equation in the form I blocker/I=(K1/2^h/(K1/2^h + [blocker]^h)). Data were analyzed using Igor (Wavemetrics, Lake Oswego, OR), SigmaPlot, and SigmaStat (Systat Software Inc., San Jose, CA). All values are reported as the mean±standard error of the mean of n experiments unless otherwise indicated. Statistical significance was determined using a Student t test or Mann–Whitney rank sum test, and a p value of <0.05 was considered significant.

[2] = target: T2, CNGA3 plus CNGB3 T383fsX channels (Homo sapiens, UniProt Q16281); experiment: Inside-out patch-clamp recording of channels expressed in Xenopus oocytes (CNGB3 T383fsX)
T2 construct: expressed in transfected cells; host or cells: Xenopus laevis oocytes injected with cRNA transcribed from pGEMHE constructs
T2 sequence (Q16281 1-694): T1 sequence (Q16281 1-694)
Protocol: as §1, §2

[3] = target: T3, CNGA3 plus CNGB3-F525N channels (Homo sapiens, UniProt Q16281+Q9NQW8, F525N); experiment: Inside-out patch-clamp recording of channels expressed in Xenopus oocytes (CNGB3 F525N)
T3 construct: expressed in transfected cells; host or cells: Xenopus laevis oocytes injected with cRNA transcribed from pGEMHE constructs
T3 sequence (Q16281 1-694): T1 sequence (Q16281 1-694)
T3 sequence (Q9NQW8 1-809 F525N): T1 sequence (Q9NQW8 1-809) with F525N
Protocol: as §1, §2

[4] = Figure 6B, read-out: K1/2,L-cis-dilt., dose-response fit of Figure 6B
[5] = intracellular face, mean±SEM, n=5, read-out: apparent affinity for L-cis-diltiazem K1/2, L-cis-dilt. (channel block)

For `COc1ccc([C@@H]2Sc3ccccc3N(CCN(C)C)C(=O)[C@@H]2OC(C)=O)cc1` [L-cis-diltiazem], the “Hill slope h, block by L-cis-diltiazem, Figure 6B” value (shortened to “Hill slope h, block”) ([1]; Figure 6B) was 0.5, the IC50 [1, 4] was 4.1 µM and the IC50 [1, 5] was 4.06 ± 1 µM. The “Hill slope h, block” value ([2]; Figure 6B) was 0.3, the IC50 [2, 4] was 135 µM and the IC50 ([2]; intracellular face, mean±SEM, n=4, read-out: apparent affinity for L-cis-diltiazem K1/2, L-cis-dilt. (channel block)) was 77.9 ± 23.1 µM. For the same compound, the “Hill slope h, block” value ([3]; Figure 6B) was 0.7, the IC50 [3, 4] was 4.2 µM and the IC50 [3, 5] was 3.03 ± 0.75 µM.

Reference: publication PMC3692405, “Disease-associated mutations in CNGB3 promote cytotoxicity in photoreceptor-derived cells” (Molecular Vision, 2013)
